Assay results from ChEMBL document CHEMBL5291721, “A preclinical secondary pharmacology resource illuminates target-adverse drug reaction associations of marketed drugs” (Nat Commun, 2023).

Tests used:
[1] = target: T1, Amine oxidase [flavin-containing] A (Homo sapiens, UniProt P21397); assay type: functional
T1 sequence (P21397 whole entry): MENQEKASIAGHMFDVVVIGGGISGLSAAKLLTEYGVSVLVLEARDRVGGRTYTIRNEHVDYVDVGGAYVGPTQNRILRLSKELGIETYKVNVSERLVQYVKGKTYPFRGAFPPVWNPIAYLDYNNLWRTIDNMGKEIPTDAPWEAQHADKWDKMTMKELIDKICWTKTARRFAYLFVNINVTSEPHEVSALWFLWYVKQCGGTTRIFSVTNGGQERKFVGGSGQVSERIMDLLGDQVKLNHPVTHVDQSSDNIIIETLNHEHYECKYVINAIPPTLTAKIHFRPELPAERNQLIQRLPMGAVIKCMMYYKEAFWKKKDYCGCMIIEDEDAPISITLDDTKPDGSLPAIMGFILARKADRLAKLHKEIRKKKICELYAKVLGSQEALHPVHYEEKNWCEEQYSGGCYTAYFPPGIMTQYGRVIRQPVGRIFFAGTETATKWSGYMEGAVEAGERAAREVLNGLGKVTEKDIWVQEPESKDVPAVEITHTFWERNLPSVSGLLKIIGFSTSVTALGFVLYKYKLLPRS

[2] = target: T2, Muscarinic acetylcholine receptor M1 (Homo sapiens, UniProt P11229); assay type: functional, cell-based
T2 sequence (P11229 whole entry): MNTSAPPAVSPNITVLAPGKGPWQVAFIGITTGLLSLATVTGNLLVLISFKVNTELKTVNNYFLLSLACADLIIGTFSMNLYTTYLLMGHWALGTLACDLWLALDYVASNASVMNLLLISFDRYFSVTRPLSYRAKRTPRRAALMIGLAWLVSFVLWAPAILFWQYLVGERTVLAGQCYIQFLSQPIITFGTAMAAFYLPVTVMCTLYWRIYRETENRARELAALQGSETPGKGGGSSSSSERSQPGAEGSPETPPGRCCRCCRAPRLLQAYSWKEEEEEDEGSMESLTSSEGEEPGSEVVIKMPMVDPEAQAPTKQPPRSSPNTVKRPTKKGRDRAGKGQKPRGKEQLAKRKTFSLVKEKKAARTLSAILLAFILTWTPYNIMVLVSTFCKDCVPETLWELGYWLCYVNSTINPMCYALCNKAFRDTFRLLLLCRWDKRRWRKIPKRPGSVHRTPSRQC

Histamine H3 receptor = Histamine H3 receptor (Homo sapiens, UniProt Q9Y5N1)
Progesterone receptor [3] = target: T3, Progesterone receptor (Homo sapiens, UniProt P06401); assay type: functional
T3 sequence (P06401 whole entry): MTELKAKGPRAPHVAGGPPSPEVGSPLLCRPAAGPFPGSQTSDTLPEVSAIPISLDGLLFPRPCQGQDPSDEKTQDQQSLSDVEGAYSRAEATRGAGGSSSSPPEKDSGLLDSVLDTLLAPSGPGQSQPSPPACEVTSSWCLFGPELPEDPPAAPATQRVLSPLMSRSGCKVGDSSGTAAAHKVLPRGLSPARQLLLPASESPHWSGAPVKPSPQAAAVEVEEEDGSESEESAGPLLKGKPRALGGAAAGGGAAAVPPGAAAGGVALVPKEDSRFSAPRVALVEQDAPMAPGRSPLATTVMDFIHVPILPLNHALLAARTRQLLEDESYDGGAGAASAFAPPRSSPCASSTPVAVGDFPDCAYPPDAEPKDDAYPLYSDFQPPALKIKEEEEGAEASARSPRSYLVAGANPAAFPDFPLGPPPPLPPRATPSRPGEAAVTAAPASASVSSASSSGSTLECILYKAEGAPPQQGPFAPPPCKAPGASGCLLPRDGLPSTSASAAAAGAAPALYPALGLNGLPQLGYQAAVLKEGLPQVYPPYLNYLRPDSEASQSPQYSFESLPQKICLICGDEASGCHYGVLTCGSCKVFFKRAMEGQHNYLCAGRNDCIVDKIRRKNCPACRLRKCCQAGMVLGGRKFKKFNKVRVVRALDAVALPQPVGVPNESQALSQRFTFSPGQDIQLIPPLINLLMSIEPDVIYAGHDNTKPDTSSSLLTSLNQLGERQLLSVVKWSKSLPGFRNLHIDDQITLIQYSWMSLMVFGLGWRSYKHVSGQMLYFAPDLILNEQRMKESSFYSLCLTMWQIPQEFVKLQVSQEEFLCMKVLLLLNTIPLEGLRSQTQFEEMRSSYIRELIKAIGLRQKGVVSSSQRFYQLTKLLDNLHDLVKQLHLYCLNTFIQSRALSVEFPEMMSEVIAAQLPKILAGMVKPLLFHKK

Cannabinoid receptor 1 = Cannabinoid receptor 1 (Homo sapiens, UniProt P21554); assay type: functional, cell-based
[4] = target: Kappa-type opioid receptor (Homo sapiens, UniProt P41145)
[5] = target: T4, 5-hydroxytryptamine receptor 1A (Homo sapiens, UniProt P08908); assay type: functional, cell-based
T4 sequence (P08908 whole entry): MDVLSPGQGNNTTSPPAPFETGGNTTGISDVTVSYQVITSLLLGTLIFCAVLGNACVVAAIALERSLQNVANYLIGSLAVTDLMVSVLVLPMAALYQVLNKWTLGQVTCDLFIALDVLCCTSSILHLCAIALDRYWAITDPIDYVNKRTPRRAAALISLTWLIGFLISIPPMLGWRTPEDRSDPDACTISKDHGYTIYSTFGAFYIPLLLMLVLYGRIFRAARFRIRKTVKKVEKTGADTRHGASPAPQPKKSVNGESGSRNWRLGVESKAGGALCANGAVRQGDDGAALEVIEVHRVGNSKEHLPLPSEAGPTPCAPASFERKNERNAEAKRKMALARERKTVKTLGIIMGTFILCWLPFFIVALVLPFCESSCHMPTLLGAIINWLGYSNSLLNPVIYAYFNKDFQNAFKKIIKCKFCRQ

Progesterone receptor [6] = target: T3, Progesterone receptor; assay type: functional; remark: listed apart in the source
Note: assay procedure not described here.

Kappa-type opioid receptor, sequence (P41145 whole entry): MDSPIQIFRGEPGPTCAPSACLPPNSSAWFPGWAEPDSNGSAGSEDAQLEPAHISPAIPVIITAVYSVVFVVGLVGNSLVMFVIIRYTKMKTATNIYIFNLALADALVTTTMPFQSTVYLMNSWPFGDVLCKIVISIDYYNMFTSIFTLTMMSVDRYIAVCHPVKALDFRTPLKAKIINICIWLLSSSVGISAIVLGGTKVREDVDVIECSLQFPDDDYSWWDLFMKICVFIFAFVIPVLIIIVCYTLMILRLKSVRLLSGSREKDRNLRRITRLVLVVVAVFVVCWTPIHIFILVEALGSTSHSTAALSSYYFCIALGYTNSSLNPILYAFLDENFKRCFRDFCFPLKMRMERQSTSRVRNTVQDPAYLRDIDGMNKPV
Cannabinoid receptor 1, sequence (P21554 whole entry): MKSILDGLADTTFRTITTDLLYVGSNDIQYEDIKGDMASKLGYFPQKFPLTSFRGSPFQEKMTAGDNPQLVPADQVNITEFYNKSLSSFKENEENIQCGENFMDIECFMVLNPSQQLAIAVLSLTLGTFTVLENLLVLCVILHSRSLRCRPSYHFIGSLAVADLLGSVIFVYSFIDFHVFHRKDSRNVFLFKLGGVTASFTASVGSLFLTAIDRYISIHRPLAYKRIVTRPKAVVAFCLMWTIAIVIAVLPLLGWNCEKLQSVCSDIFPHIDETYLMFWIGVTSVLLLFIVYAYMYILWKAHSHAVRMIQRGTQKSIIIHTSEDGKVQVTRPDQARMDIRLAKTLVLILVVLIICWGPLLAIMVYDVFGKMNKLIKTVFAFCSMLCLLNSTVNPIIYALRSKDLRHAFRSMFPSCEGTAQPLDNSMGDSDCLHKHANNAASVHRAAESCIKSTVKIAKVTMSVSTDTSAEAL
Histamine H3 receptor, sequence (Q9Y5N1 whole entry): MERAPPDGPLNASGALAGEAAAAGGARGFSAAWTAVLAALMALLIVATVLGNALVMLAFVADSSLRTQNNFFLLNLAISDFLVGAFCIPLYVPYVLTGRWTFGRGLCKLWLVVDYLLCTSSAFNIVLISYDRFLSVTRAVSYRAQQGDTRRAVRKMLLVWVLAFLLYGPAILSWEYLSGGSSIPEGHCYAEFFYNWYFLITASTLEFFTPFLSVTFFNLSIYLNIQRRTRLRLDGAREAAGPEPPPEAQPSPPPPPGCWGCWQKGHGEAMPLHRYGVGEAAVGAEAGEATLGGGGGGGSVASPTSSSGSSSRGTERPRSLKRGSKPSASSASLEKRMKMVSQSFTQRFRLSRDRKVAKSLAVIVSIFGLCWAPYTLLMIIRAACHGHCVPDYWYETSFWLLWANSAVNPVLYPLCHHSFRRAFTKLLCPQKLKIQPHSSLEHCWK

| Compound | AC50 [1] | AC50 [2] | AC50 (Histamine H3 receptor) | AC50 (Progesterone receptor [3]) | AC50 (Cannabinoid receptor 1) | AC50 [4] | AC50 [5] | AC50 (Progesterone receptor [6]) |
| --- | --- | --- | --- | --- | --- | --- | --- | --- |
| OC[C@H]1NC[C@H](O)[C@@H](O)[C@H]1O | > 30 µM | > 30 µM | > 30 µM |  |  |  |  |  |
| CC#CC(=O)N1CCC[C@H]1c1nc(-c2ccc(C(=O)Nc3ccccn3)cc2)c2c(N)nccn12 [ACALABRUTINIB] | > 30 µM | > 30 µM | > 30 µM |  |  |  |  |  |
| C=CCOc1ccc(CC(=O)O)cc1Cl [ALCLOFENAC] | > 30 µM | > 30 µM | > 30 µM |  |  |  |  |  |
| CC[N+](CC)(CCNC(=O)C(=O)NCC[N+](CC)(CC)Cc1ccccc1Cl)Cc1ccccc1Cl [AMBENONIUM] |  |  |  | > 30 µM | > 30 µM | 0.7 µM | > 30 µM | > 30 µM |
| CN(C)CCOC(c1ccc(Cl)cc1)c1ccccn1 (stereo not drawn) [CARBINOXAMINE] |  |  |  | > 30 µM | > 30 µM | > 30 µM | > 30 µM | > 30 µM |
| CCN(CC)CCn1c(=O)c(Cc2ccc(OC)cc2)nc2ccccc21 [CAROVERINE] |  |  |  | > 30 µM | > 30 µM | 5.34 µM | > 30 µM | > 30 µM |
| NC(=O)C1(N2CCCCC2)CCN(CCCN2c3ccccc3CCc3ccccc32)CC1 [CARPIPRAMINE] | > 30 µM | 22 µM | 11.7 µM |  |  |  |  |  |
| CN1CCN(C(c2ccccc2)c2ccc(Cl)cc2)CC1 (stereo not drawn) [CHLORCYCLIZINE] | > 30 µM | > 30 µM | 15.8 µM |  |  |  |  |  |
| CC(C)/N=c1\cc2n(-c3ccc(Cl)cc3)c3ccccc3nc-2cc1Nc1ccc(Cl)cc1 [CLOFAZIMINE] |  |  |  | > 30 µM | > 30 µM | 14 µM | > 30 µM | > 30 µM |
| CCCCCCCCCCCCCCCC(=O)OC[C@H](COP(=O)([O-])OCC[N+](C)(C)C)OC(=O)CCCCCCCCCCCCCCC [COLFOSCERIL PALMITATE] | > 30 µM | > 30 µM | > 30 µM |  |  |  |  |  |
| CC(C)Nc1cccnc1N1CCN(C(=O)c2cc3cc(NS(C)(=O)=O)ccc3[nH]2)CC1 [DELAVIRDINE] | 24 µM | > 30 µM | > 30 µM |  |  |  |  |  |
| C[C@H](Nc1ncnc2[nH]cnc12)c1cc2cccc(Cl)c2c(=O)n1-c1ccccc1 [DUVELISIB] | > 30 µM |  | > 30 µM | > 30 µM | > 30 µM |  | > 30 µM | > 30 µM |
| NCC1(CC(=O)O)CCCCC1 [GABAPENTIN] | > 30 µM |  | > 30 µM | > 30 µM | > 30 µM | > 10 µM | > 30 µM | > 30 µM |
| N[C@@H](Cc1cc(I)c(Oc2cc(I)c(O)c(I)c2)c(I)c1)C(=O)O [LEVOTHYROXINE] |  |  |  | > 30 µM | > 30 µM | > 30 µM | > 30 µM | 8.7 µM |
| CC(=O)NC[C@H]1CN(c2ccc(N3CCOCC3)c(F)c2)C(=O)O1 [LINEZOLID] |  |  |  | > 30 µM | > 30 µM | > 30 µM | > 30 µM | > 30 µM |
| CC(=O)SCC(Cc1ccccc1)C(=O)NCC(=O)OCc1ccccc1 (stereo not drawn) [RACECADOTRIL] |  |  |  | > 30 µM | 17 µM | 8.6 µM | > 30 µM | > 30 µM |
| CC(C)(CO)c1cc2cc(NC(=O)C3(c4ccc5c(c4)OC(F)(F)O5)CC3)c(F)cc2n1C[C@@H](O)CO [TEZACAFTOR] |  |  |  | > 30 µM | > 30 µM |  | > 10 µM | > 30 µM |
| Cc1c(C)c2c(c(C)c1O)CCC(C)(COc1ccc(CC3SC(=O)NC3=O)cc1)O2 (stereo not drawn) [TROGLITAZONE] | > 30 µM |  | > 30 µM | > 30 µM | > 30 µM | 18 µM | 6.9 µM | 16 µM |
| c1cnc2cc3c(cc2n1)[C@@H]1CNC[C@H]3C1 [VARENICLINE] |  |  |  | > 30 µM | > 30 µM |  | > 30 µM | > 30 µM |
| Nc1c2c(nc3ccccc13)CCCC2O (stereo not drawn) [VELNACRINE] |  |  |  | > 30 µM | > 30 µM |  | > 30 µM | > 30 µM |
